Assays:
army worms = assay: Effect on Army Worm (artificial feed test); assay type: in vivo; conditions: 10 μg of compound on 0.2 ml artificial feed, second instar, 25° C., 5 days
Procedure: Test feeds were prepared by filling plastic test tubes (capacity of 1.4 ml) with 0.2 ml of a commercial artificial feed (Insecta LFS, manufactured by Nosan Corporation). Each of 1% chemical compound solutions was prepared by using DMSO (containing 0.5% tween 20), which was then dropped into the surface of the feed in amount of 10 μg of the respective chemical compounds. 2 army worms, each of which was in the second instar, were inoculated into each of the test tubes, which were then sealed by their plastic caps. After they were left at 25° C. for 5 days, the rate of killed army worms and their feed consumptions were investigated. The test was repeated twice. […] 1-8, 1-9, 1-13, 1-15, 1-17, 1-22, 1-23, 1-27, 1-39, 1-45, 1-46, 1-59, 1-69, 1-72, 1-74, 1-75, 1-79, 1-80, 1-83, 1-95, 1-97, 1-981-100, 1-105, 1-108, 1-114, 1-133, 1-140, 1-147, 1-153, 1-165, 1-166, 1-181, 1-182, 1-183, 1-184, 1-187, 1-189, 1-190,

[1] = system: organophosphorous agent resistant two-spotted spider mites; assay: Effect on Two-spotted Spider Mite (spray on kidney bean leaves); assay type: in vivo; conditions: 125 ppm, water dispersible powder of Formulation Example 1 sprayed, 17 female adults, 25° C., 65% humidity, 3 days
Summary of the method: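 Mortality of adult females counted after 3 days at 25 °C and 65% humidity, following a 125 ppm spray of wettable-powder dilution onto infested 7–10-day-old bean seedlings (17 mites per leaf). Two replicates.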

[2] = system: acaricide resistant citrus red mites; assay: Effect on Citrus Red Mite (spray on mandarin orange leaves); assay type: in vivo; conditions: 31 ppm, emulsifiable concentrate of Formulation Example 2 sprayed, 10 female adults, 25° C., 65% humidity
Summary of the method: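 Acaricide-resistant female adult citrus red mites (10 per leaf) on mandarin orange leaves were sprayed with emulsifiable concentrate diluted to 31 ppm compound. Leaves were held 3 days at 25° C, 65% humidity, then adults were removed. Eggs laid during those 3 days were checked on day 11 for development to adults.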

COC(C)OCc1cc(C(F)(F)F)ccc1OC1CCN(c2ccc(C(F)(F)F)cn2)CC1 (stereo not shown) [1-72]
killed 100% of the army worms, or inhibited their feed consumptions, in comparison with a solvent control area, to 10% or less (effective) (army worms): effective | rate of killed adults [1]: 100% | killed ... of the adults (eggs laid for 3 days investigated whether they could grow to adults on the eleventh day) [2]: 100%

FC(F)(F)c1ccc(OC2CCN(c3ccc(C(F)(F)F)cn3)CC2)cc1 [1-75]
killed 100% of the army worms, or inhibited their feed consumptions, in comparison with a solvent control area, to 10% or less (effective) (army worms): effective | rate of killed adults [1]: 100% | killed ... of the adults (eggs laid for 3 days investigated whether they could grow to adults on the eleventh day) [2]: 100%

FC(F)(F)c1ccc(N2CCC(Oc3ccc(C(F)(F)F)cc3C(F)(F)F)CC2)nc1 [1-80]
killed 100% of the army worms, or inhibited their feed consumptions, in comparison with a solvent control area, to 10% or less (effective) (army worms): effective | rate of killed adults [1]: 100% | killed ... of the adults (eggs laid for 3 days investigated whether they could grow to adults on the eleventh day) [2]: 100%

COCOc1cc(C(F)(F)F)ccc1OC1CCN(c2ccc(C(F)(F)F)cn2)CC1 [1-105, 4-[2-methoxymethoxy-4-(trifluoromethyl)-phenoxy]-1-[5-(trifluoromethyl)-2-pyridyl]piperidine]
killed 100% of the army worms, or inhibited their feed consumptions, in comparison with a solvent control area, to 10% or less (effective) (army worms): effective | rate of killed adults [1]: 100% | killed ... of the adults (eggs laid for 3 days investigated whether they could grow to adults on the eleventh day) [2]: 100%

FC(F)(F)c1ccc(N2CCC(Oc3ccc(C(F)(F)F)cc3OCC3CC3)CC2)nc1 [1-108]
killed 100% of the army worms, or inhibited their feed consumptions, in comparison with a solvent control area, to 10% or less (effective) (army worms): effective | rate of killed adults [1]: 100% | killed ... of the adults (eggs laid for 3 days investigated whether they could grow to adults on the eleventh day) [2]: 100%

FC(F)(F)Oc1ccc(OC2CCN(c3ccc(C(F)(F)F)cn3)CC2)cc1 [1-133]
killed 100% of the army worms, or inhibited their feed consumptions, in comparison with a solvent control area, to 10% or less (effective) (army worms): effective | rate of killed adults [1]: 100% | killed ... of the adults (eggs laid for 3 days investigated whether they could grow to adults on the eleventh day) [2]: 100%

O=S(=O)(Oc1ccc(OC2CCN(c3ccc(C(F)(F)F)cn3)CC2)cc1)C(F)(F)F [1-153]
killed 100% of the army worms, or inhibited their feed consumptions, in comparison with a solvent control area, to 10% or less (effective) (army worms): effective | rate of killed adults [1]: 100% | killed ... of the adults (eggs laid for 3 days investigated whether they could grow to adults on the eleventh day) [2]: 100%

CC(=O)Oc1cc(C(F)(F)F)ccc1OC1CCN(c2ccc(C(F)(F)F)cn2)CC1 [1-167, 4-[2-acetoxy-4-(trifluoromethyl)phenoxy]-1-[5-(trifluoromethyl)-2-pyridyl]piperidine]
melting point: 85 to 95 °C

FC(F)(F)c1ccc(N2CCC(Oc3ccc(C(F)(F)F)cc3C3OCCO3)CC2)nc1 [1-181]
killed 100% of the army worms, or inhibited their feed consumptions, in comparison with a solvent control area, to 10% or less (effective) (army worms): effective | rate of killed adults [1]: 100% | killed ... of the adults (eggs laid for 3 days investigated whether they could grow to adults on the eleventh day) [2]: 100%

CCCOc1cc(C(F)(F)F)ccc1OC1CCN(c2ccc(C(F)(F)F)cn2)CC1CC (stereo not shown) [1-187]
killed 100% of the army worms, or inhibited their feed consumptions, in comparison with a solvent control area, to 10% or less (effective) (army worms): effective | rate of killed adults [1]: 100% | killed ... of the adults (eggs laid for 3 days investigated whether they could grow to adults on the eleventh day) [2]: 100%

COC(C)OCc1cc(C(F)(F)F)ccc1OC1CCN(c2ccc(C(F)(F)F)cn2)CC1C (stereo not shown) [1-189]
killed 100% of the army worms, or inhibited their feed consumptions, in comparison with a solvent control area, to 10% or less (effective) (army worms): effective | rate of killed adults [1]: 100% | killed ... of the adults (eggs laid for 3 days investigated whether they could grow to adults on the eleventh day) [2]: 100%

Cc1noc(-c2cc(C(F)(F)F)ccc2OC2CCN(c3ccc(C(F)(F)F)cn3)CC2)n1 [1-190]
killed 100% of the army worms, or inhibited their feed consumptions, in comparison with a solvent control area, to 10% or less (effective) (army worms): effective | rate of killed adults [1]: 100% | killed ... of the adults (eggs laid for 3 days investigated whether they could grow to adults on the eleventh day) [2]: 100%

Source: patent US8101768B2, “Cyclic amine compound and pest control agent” (Nippon Soda Co., Ltd., priority 2004, dated 2012)
